Data: ChEMBL document CHEMBL1955750, “Benzodiazepines and benzotriazepines as protein interaction inhibitors targeting bromodomains of the BET family” (Bioorg Med Chem, 2012)
Calls of active or inactive are those of the source. No cut-off for these calls is given here.

How the values were obtained:
[1] = molecular target: T1, Bromodomain-containing protein 4 (Homo sapiens, UniProt O60885); experiment: Binding affinity to BRD4-BD1 assessed as change in melting temperature at 10 uM by protein stability shift assay
[2] = molecular target: Bromodomain-containing protein 2 (Homo sapiens) (UniProt P25440); experiment: Binding affinity to BRD2-BD2 assessed as change in melting temperature at 10 uM by protein stability shift assay
[3] = molecular target: T1, Bromodomain-containing protein 4; experiment: Binding affinity to BRD4-BD2 assessed as change in melting temperature at 10 uM by protein stability shift assay
[4] = molecular target: Bromodomain-containing protein 3 (Homo sapiens) (UniProt Q15059); experiment: Binding affinity to BRD3-BD2 assessed as change in melting temperature at 10 uM by protein stability shift assay
[5] = molecular target: Protein polybromo-1 (Homo sapiens) (UniProt Q86U86); experiment: Binding affinity to PB1 assessed as change in melting temperature at 10 uM by protein stability shift assay
[6] = molecular target: Bromodomain-containing protein 3 (Homo sapiens) (UniProt Q15059); experiment: Binding affinity to BRD3-BD1 assessed as change in melting temperature at 10 uM by protein stability shift assay
[7] = molecular target: CREB-binding protein (Homo sapiens) (UniProt Q92793); experiment: Binding affinity to CREBBP assessed as change in melting temperature at 10 uM by protein stability shift assay
[8] = molecular target: Bromodomain-containing protein 2 (Homo sapiens) (UniProt P25440); experiment: Binding affinity to BRD2-BD1 assessed as change in melting temperature at 10 uM by protein stability shift assay
[9] = molecular target: Bromodomain adjacent to zinc finger domain protein 2B (Homo sapiens) (UniProt Q9UIF8); experiment: Binding affinity to BAZ2B assessed as change in melting temperature at 10 uM by protein stability shift assay
[10] = Binding affinity to LOC93349 assessed as change in melting temperature at 10 uM by protein stability shift assay
[11] = molecular target: Bromodomain testis-specific protein (Homo sapiens) (UniProt Q58F21); experiment: Binding affinity to BRDT-BD1 assessed as change in melting temperature at 10 uM by protein stability shift assay
[12] = molecular target: Histone acetyltransferase KAT2B (Homo sapiens) (UniProt Q92831); experiment: Binding affinity to PCAF assessed as change in melting temperature at 10 uM by protein stability shift assay
[13] = molecular target: Protein polybromo-1 (Homo sapiens) (UniProt Q86U86); experiment: Binding affinity to PB1 assessed as change in melting temperature at 100 uM by protein stability shift assay
[14] = molecular target: Bromodomain adjacent to zinc finger domain protein 2B (Homo sapiens) (UniProt Q9UIF8); experiment: Binding affinity to BAZ2B assessed as change in melting temperature at 100 uM by protein stability shift assay
[15] = molecular target: Bromodomain-containing protein 2 (Homo sapiens) (UniProt P25440); experiment: Binding affinity to BRD2-BD2 assessed as change in melting temperature at 100 uM by protein stability shift assay
[16] = molecular target: T1, Bromodomain-containing protein 4; experiment: Binding affinity to BRD4-BD2 assessed as change in melting temperature at 100 uM by protein stability shift assay
[17] = molecular target: T1, Bromodomain-containing protein 4; experiment: Binding affinity to BRD4-BD1 assessed as change in melting temperature at 100 uM by protein stability shift assay
[18] = Binding affinity to LOC93349 assessed as change in melting temperature at 100 uM by protein stability shift assay
[19] = molecular target: Bromodomain-containing protein 3 (Homo sapiens) (UniProt Q15059); experiment: Binding affinity to BRD3-BD1 assessed as change in melting temperature at 100 uM by protein stability shift assay
[20] = molecular target: Histone acetyltransferase KAT2B (Homo sapiens) (UniProt Q92831); experiment: Binding affinity to PCAF assessed as change in melting temperature at 100 uM by protein stability shift assay
[21] = molecular target: Bromodomain testis-specific protein (Homo sapiens) (UniProt Q58F21); experiment: Binding affinity to BRDT-BD1 assessed as change in melting temperature at 100 uM by protein stability shift assay
[22] = molecular target: Bromodomain-containing protein 2 (Homo sapiens) (UniProt P25440); experiment: Binding affinity to BRD2-BD1 assessed as change in melting temperature at 100 uM by protein stability shift assay
[23] = molecular target: CREB-binding protein (Homo sapiens) (UniProt Q92793); experiment: Binding affinity to CREBBP assessed as change in melting temperature at 100 uM by protein stability shift assay
[24] = molecular target: Bromodomain-containing protein 3 (Homo sapiens) (UniProt Q15059); experiment: Binding affinity to BRD3-BD2 assessed as change in melting temperature at 100 uM by protein stability shift assay
[25] = molecular target: T1, Bromodomain-containing protein 4
Description: Binding affinity to BRD4-BD1 assessed as change in melting temperature by isothermal titration calorimetry

Chain of CREB-binding protein (Homo sapiens) (Q92793 2-2442 limits assumed): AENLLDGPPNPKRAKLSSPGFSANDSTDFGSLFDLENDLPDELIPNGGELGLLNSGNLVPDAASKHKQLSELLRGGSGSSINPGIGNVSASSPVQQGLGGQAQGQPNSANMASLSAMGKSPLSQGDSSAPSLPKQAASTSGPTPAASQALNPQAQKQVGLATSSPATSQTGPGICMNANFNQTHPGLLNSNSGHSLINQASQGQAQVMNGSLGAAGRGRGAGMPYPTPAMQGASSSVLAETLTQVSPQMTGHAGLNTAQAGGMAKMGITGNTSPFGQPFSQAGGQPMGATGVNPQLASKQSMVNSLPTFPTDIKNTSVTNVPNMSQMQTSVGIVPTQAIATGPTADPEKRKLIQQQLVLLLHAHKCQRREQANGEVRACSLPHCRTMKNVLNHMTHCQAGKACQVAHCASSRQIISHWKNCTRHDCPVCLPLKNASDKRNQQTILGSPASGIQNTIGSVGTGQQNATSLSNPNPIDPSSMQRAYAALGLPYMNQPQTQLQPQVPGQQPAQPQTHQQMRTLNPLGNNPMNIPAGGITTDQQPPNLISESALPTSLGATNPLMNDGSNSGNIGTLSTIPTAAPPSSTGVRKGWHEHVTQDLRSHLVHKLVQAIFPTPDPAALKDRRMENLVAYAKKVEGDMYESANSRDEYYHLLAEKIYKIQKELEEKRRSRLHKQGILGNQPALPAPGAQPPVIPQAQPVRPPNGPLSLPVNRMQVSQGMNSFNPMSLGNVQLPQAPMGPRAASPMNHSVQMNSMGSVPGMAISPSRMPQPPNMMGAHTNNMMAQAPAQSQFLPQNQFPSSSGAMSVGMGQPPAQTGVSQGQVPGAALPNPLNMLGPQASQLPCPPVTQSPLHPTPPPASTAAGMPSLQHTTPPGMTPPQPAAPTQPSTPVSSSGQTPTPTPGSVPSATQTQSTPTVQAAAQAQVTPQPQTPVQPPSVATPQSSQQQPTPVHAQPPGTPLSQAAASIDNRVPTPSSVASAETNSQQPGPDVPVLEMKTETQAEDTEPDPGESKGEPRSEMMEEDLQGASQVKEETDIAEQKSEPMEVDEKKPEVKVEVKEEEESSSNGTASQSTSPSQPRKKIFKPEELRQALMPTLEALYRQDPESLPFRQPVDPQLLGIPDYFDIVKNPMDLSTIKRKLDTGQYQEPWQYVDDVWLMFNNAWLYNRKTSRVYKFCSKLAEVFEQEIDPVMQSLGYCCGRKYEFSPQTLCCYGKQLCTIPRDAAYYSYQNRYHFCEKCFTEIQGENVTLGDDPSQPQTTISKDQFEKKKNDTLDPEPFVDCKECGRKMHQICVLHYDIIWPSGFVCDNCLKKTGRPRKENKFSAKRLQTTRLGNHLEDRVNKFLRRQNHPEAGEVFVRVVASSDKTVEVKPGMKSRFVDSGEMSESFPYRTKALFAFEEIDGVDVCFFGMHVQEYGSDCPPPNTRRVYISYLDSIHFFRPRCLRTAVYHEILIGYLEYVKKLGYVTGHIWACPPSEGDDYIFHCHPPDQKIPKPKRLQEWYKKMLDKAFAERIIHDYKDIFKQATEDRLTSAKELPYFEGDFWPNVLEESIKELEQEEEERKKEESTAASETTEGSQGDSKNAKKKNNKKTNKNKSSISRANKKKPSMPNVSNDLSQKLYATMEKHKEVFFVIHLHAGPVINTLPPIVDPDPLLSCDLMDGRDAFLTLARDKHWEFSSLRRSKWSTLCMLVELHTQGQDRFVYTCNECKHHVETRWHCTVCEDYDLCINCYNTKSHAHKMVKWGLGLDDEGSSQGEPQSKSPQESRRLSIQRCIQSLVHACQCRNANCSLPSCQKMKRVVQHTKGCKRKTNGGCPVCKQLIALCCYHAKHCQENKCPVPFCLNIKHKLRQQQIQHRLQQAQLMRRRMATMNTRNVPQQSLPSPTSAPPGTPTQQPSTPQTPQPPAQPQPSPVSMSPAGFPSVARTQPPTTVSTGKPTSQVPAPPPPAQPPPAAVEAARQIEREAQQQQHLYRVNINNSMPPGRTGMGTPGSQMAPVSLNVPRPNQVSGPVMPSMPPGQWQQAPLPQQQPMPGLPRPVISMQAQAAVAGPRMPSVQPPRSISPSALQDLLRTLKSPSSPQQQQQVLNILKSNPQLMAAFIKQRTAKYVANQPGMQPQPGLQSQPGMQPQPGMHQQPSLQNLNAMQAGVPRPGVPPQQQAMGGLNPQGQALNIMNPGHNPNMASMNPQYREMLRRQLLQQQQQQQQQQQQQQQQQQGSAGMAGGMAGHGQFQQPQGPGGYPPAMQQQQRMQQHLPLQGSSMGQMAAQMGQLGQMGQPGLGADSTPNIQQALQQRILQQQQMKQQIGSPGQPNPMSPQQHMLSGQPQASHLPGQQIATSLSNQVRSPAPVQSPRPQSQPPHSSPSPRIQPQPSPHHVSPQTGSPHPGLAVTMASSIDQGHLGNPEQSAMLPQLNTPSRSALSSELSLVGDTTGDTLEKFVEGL
Chain of Bromodomain-containing protein 2 (Homo sapiens) (P25440 whole entry, looked up, the tested form may be a part): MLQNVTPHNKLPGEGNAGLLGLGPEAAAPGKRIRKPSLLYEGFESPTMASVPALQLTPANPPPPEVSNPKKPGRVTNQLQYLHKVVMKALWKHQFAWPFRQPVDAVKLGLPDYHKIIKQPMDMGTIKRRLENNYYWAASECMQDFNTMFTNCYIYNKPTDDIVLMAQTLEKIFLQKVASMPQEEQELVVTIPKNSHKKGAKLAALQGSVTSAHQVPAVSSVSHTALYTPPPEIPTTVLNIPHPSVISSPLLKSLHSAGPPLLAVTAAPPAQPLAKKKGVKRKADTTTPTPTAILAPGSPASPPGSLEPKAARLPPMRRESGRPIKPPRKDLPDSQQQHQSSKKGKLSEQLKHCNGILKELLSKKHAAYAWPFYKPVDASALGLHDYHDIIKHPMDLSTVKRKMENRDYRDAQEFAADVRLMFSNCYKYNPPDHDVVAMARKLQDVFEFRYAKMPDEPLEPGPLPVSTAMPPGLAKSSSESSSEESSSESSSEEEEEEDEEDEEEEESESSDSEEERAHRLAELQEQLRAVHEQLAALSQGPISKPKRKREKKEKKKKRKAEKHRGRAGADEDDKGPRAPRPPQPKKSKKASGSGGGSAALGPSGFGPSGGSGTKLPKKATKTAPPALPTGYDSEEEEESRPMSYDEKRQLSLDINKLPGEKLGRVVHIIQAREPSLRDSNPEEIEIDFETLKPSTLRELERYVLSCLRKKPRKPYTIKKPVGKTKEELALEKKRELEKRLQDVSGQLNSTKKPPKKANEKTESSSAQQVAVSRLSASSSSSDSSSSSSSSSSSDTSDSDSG
Chain of Bromodomain-containing protein 3 (Homo sapiens) (Q15059 2-726 limits assumed): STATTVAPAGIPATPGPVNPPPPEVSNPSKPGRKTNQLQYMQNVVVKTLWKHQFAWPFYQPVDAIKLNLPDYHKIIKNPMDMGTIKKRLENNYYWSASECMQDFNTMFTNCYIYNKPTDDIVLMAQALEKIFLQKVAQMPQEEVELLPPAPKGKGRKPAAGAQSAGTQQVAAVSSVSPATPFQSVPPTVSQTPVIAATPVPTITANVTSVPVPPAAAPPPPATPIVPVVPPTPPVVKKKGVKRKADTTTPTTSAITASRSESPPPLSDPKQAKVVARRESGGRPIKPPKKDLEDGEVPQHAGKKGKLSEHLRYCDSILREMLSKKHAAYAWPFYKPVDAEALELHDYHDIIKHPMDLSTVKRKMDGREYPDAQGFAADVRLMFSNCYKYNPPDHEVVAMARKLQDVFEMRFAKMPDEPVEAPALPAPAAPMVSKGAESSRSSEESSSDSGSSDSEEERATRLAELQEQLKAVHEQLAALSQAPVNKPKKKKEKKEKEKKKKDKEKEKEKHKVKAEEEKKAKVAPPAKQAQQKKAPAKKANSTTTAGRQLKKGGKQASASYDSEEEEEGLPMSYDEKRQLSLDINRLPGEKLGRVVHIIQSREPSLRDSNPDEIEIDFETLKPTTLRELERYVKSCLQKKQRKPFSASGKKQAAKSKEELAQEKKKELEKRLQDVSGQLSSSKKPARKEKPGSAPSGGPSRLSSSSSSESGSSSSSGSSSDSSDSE
Chain of Histone acetyltransferase KAT2B (Homo sapiens) (Q92831 whole entry, looked up): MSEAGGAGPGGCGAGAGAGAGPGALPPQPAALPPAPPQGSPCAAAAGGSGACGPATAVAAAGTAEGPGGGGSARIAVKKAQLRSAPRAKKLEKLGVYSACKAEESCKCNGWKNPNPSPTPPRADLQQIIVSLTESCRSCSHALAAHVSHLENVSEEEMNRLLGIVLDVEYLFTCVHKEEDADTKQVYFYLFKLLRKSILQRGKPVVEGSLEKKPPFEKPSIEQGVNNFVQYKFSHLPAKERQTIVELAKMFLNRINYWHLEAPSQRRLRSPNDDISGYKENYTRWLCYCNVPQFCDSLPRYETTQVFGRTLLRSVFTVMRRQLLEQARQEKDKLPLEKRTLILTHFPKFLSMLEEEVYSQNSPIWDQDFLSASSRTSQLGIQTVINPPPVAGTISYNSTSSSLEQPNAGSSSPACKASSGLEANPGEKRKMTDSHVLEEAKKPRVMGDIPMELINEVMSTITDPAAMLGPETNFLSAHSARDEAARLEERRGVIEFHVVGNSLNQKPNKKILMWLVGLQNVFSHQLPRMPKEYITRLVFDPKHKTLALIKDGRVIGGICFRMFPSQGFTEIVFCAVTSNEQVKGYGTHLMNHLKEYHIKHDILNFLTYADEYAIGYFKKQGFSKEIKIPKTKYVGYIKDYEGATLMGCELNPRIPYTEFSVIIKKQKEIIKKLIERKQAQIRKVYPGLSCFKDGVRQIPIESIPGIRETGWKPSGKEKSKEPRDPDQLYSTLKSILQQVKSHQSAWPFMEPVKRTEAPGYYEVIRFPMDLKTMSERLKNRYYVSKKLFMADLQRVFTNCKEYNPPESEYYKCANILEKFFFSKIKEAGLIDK

Row | SMILES | Activity [1] | Activity [2] | Activity [3] | Activity [4] | Activity [5] | Activity [6] | Activity [7] | Activity [8] | ΔTm [13] [°C] | ΔTm [14] [°C] | ΔTm [15] [°C] | ΔTm [16] [°C] | ΔTm [17] [°C] | ΔTm [18] [°C] | ΔTm [19] [°C] | ΔTm [20] [°C] | ΔTm [21] [°C] | ΔTm [22] [°C] | ΔTm [23] [°C] | ΔTm [24] [°C] | also measured
1 | Cc1ncc2n1-c1ccc(Cl)cc1C(c1ccccc1F)=NC2 | Active | Active | Active | Active | inactive | Active | Active | Active |  |  |  |  |  |  |  |  |  |  |  |  | Activity [9]: inactive; Activity [10]: inactive; Activity [11]: Active; Activity [12]: inactive
2 | Clc1ccc2c(c1)C(c1ccccc1)=NCc1nncn1-2 | Active | inactive | Active | Active | inactive | Active | Active | inactive |  |  |  |  |  |  |  |  |  |  |  |  | Activity [9]: inactive; Activity [10]: inactive; Activity [11]: inactive; Activity [12]: inactive
3 | CCC1=NCc2nnc(-c3ccccc3)n2-c2ccc(Cl)cc21 |  |  |  |  |  |  |  |  | < 2 | < 2 | < 2 | < 2 | < 2 | < 2 | < 2 | < 2 | < 2 | < 2 | < 2 | < 2 | 
4 | CCC1=NCc2nnc(CC)n2-c2ccc(Cl)cc21 |  |  |  |  |  |  |  |  | < 2 | < 2 | < 2 | < 2 | < 2 | < 2 | < 2 | < 2 | < 2 | < 2 | < 2 | < 2 | 
5 | Cc1nnc2n1-c1ccc(Cl)cc1C(c1ccccc1)=NC2 [ALPRAZOLAM] | Active | Active | Active | Active | Active | Active | Active | Active |  |  |  |  |  |  |  |  |  |  |  |  | Activity [9]: inactive; ΔTm [25]: 4.7 °C; Activity [10]: inactive; Activity [11]: Active; Activity [12]: inactive
6 | CCOC(=O)c1ncn2c1[C@@H]1CCCN1C(=O)c1cc(OC)ccc1-2 | Active | inactive | Active | inactive | inactive | Active | inactive | Active |  |  |  |  |  |  |  |  |  |  |  |  | Activity [9]: inactive; Activity [10]: inactive; Activity [11]: inactive; Activity [12]: inactive
7 | CCC1=NCc2nnc(-c3cccc(OC)c3)n2-c2ccc(Cl)cc21 |  |  |  |  |  |  |  |  | < 2 | < 2 | < 2 | < 2 | < 2 | < 2 | < 2 | < 2 | < 2 | < 2 | < 2 | < 2 | 
8 | CN1N=C(c2ccccc2)c2cc(Cl)ccc2-n2c(N)nnc21 |  |  |  |  |  |  |  |  | < 2 | < 2 | < 2 | < 2 | < 2 | < 2 | < 2 | < 2 | < 2 | < 2 | < 2 | < 2 | 
9 | CN1N=C(c2ccccc2)c2cc(Cl)ccc2NC1=S |  |  |  |  |  |  |  |  | < 2 | < 2 | < 2 | < 2 | < 2 | < 2 | < 2 | < 2 | < 2 | < 2 | < 2 | < 2 | 
10 | CCC1=NCC(=S)Nc2ccc(Cl)cc21 |  |  |  |  |  |  |  |  | < 2 | < 2 | < 2 | < 2 | < 2 | < 2 | < 2 | < 2 | < 2 | < 2 | < 2 | < 2 | 
11 | CCC1=NCc2nnc(-c3ccncc3)n2-c2ccc(Cl)cc21 |  |  |  |  |  |  |  |  | < 2 | < 2 | < 2 | < 2 | < 2 | < 2 | < 2 | < 2 | < 2 | < 2 | < 2 | < 2 | 
12 | CCC1=NCC(=O)Nc2ccc(Cl)cc21 |  |  |  |  |  |  |  |  | < 2 | < 2 | < 2 | < 2 | < 2 | < 2 | < 2 | < 2 | < 2 | < 2 | < 2 | < 2 | 
13 | Cc1nnc2n1-c1ccc(Cl)cc1C(c1ccccc1)=NN2C | Active | Active | Active | Active | Active | Active | Active | Active | < 2 | < 2 | < 2 | < 2 | < 2 | < 2 | < 2 | < 2 | < 2 | < 2 | < 2 | < 2 | Activity [9]: inactive; ΔTm [25]: 4.2 °C; Activity [10]: Active; Activity [11]: Active; Activity [12]: Active
14 | CN1N=C(c2ccccc2)c2cc(Cl)ccc2-n2c1n[nH]c2=O |  |  |  |  |  |  |  |  | < 2 | < 2 | < 2 | < 2 | < 2 | < 2 | < 2 | < 2 | < 2 | < 2 | < 2 | < 2 | 
15 | CC(=O)NNC1=Nc2ccc(Cl)cc2C(c2ccccc2)=NN1C |  |  |  |  |  |  |  |  | < 2 | < 2 | < 2 | < 2 | < 2 | < 2 | < 2 | < 2 | < 2 | < 2 | < 2 | < 2 | 
16 | CCC1=NCc2nnc(C)n2-c2ccc(Cl)cc21 |  |  |  |  |  |  |  |  | < 2 | < 2 | < 2 | < 2 | < 2 | < 2 | < 2 | < 2 | < 2 | < 2 | < 2 | < 2 | 
